Values of other authors in article PMC7070898 (Clinical and Translational Science, 2019).

What was measured:
[1] = test system: interferon‐accelerated systemic lupus erythematosus; details: mouse model of interferon‐accelerated systemic lupus erythematosus ref 8; cited from earlier work
[2] = test system: collagen‐induced arthritis; details: collagen‐induced arthritis mouse model ref 8; cited from earlier work

C=CC(=O)N1CCC(CNc2ncnc(N)c2-c2ccc(Oc3ccccc3)cc2)CC1 [evobrutinib]
disease activity [1]: robust reduction in disease activity | rheumatoid arthritis‐like symptoms [2]: rheumatoid arthritis‐like symptoms were inhibited
